{"source": "paper PMC4145316", "about": "“Cytotoxic and Apoptosis-Inducing Activity of Triterpene Glycosides from Holothuria scabra and Cucumaria frondosa against HepG2 Cells” (Marine Drugs, 2014)", "key": {"[1]": {"system": "human liver (HL-7702) cells", "assay": "MTT cytotoxicity assay, normal HL-7702 cells", "assay_type": "cell-based", "details": "for Ratio (HL-7702/HepG2): ratio of IC50 values against HL-7702 and HepG2 cells, selective cytotoxicity", "experimental": "(§1) Human hepatoma (HepG2), human cervical cancer (HeLa), human leukemia (K562) and human liver (HL-7702) cells were obtained by Shanghai Institute of Biochemistry and Cell Biology, and maintained in the logarithmic phase of growth in RPMI-1640 complete medium supplemented with 2 mM L-glutamine (Sigma Chemical Co., Saint Louis, MO, USA), 100 IU/mL penicillin, 100 μg/mL streptomycin and 10% FCS at 37 °C under humidified air with 5% CO2.\n(§2) The effect of compounds 1–13 on the viability of HepG2, HeLa, K562 and HL-7702 cells was determined by MIT assay as described previously. Briefly, the tumor and normal cells were seeded at 1 × 10^4 cells/well in a 96-well microtiter plate and incubated at 37 °C in a humidified atmosphere with 5% CO2. After 24 h, compounds 1–13, the positive drug CDDP or RPMI-1640 medium were added into each well, and the plates were incubated at 37 °C for the indicated time. Each concentration was repeated four wells. 50 μL of MTT solution (2 mg/mL) was added to each well 4 h before incubation end, and incubated further for 4 h. The plates were centrifuged (1400× g, 5 min) and the untransformed MTT was removed carefully by pipetting. To each well, 150 μL of DMSO was added and the absorbance was evaluated in an ELISA reader at 570 nm after 15 min. The inhibitory rates and 50% inhibitory concentrations (IC50) values towards cell viability were calculated by NDST software. Each test was performed in triplicate."}, "[2]": {"system": "Bcl-2 and Bax mRNA in HepG2 cells", "assay": "RT-PCR, Bcl-2/Bax mRNA expression ratio", "assay_type": "cell-based, human", "details": "time- and concentration-dependent", "text": "The Bcl-2 family members can alter the permeability of mitochondrial membrane, and release cytochrome c or activate caspase cascade. There are two classes of regulatory proteins in the Bcl-2 family that have opposite effects on apoptosis: The anti-apoptotic members (Bcl-2 and Bcl-XL) protect cells against some forms of apoptosis, whereas the pro-apoptotic members (Bax and Bcl-xS) promote programmed cell death. As decrease of the ratio between anti-apoptotic gene Bcl-2 and pro-apoptotic gene Bax mRNA expression is widely considered as a hallmark of apoptosis, the expression level of Bcl-2 and Bax mRNA in HepG2 cells were first detected.\nFigure 5 Effect of 1 on the ratio of expression level between Bcl-2 and Bax mRNA in HepG2 cells. HepG2 cells were incubated with 1 at the various concentrations for the different time. The mRNA expression levels of β-actin, Bcl-2, and Bax were detected by RT-PCR using specific primers. The values are presented as means ± SD (n = 3). […]\nTotal RNA was extracted with TRIzol reagent (Invitrogen, Grand Island, NY, USA) according to the manufacturer’s instructions, and reverse transcription was performed as previously. […] Semi-quantitative RT-PCR was performed using β-actin as an internal control to normalize gene expression for the PCR templates. […] The size of the amplified fragments was determined by comparison with a standard DNA marker."}, "HepG2 cells": {"system": "HepG2 cells", "assay": "Mitochondrial transmembrane potential, JC-1 staining", "assay_type": "cell-based, human", "details": "2.5, 2.75 and 3 μg/mL for 6 h", "experimental": "Therefore, we measured the Δψm in 1-treated HepG2 cells and control cells using JC-1 staining, and the results were shown in Figure 4. The aggregated JC-1 within normal mitochondria in HepG2 cells was dispersed to the monomeric form (green fluorescence) after treatment with 1 for 6 h. […] After treatment with 1 at 3 μg/mL, the red fluorescence disappeared and pure green fluorescence only occurred in HepG2 cells.\nAfter treatment with 1 at the concentration of 0, 2.5, 2.75 and 3 μg/mL for 6 h, the cells were harvested, washed twice with PBS, and then incubated with 500 μL of JC-1 staining solution (5 μg/mL) at 37 °C for 30 min [43]. The stained cells were rinsed twice with PBS and resuspended in medium. The Δψm was monitored by determining the relative amounts of dual emissions from mitochondrial JC-1 monomers (green fluorescence) to aggregates (red fluorescence) using an Olympus fluorescent microscope under Argon-ion 488 nm laser excitation."}, "[3]": {"system": "human hepatoma (HepG2) cells", "assay": "MTT cytotoxicity assay, HepG2 cells", "assay_type": "cell-based", "details": "means ± SD (n = 3)", "experimental": "as §1, §2"}, "Top2a": {"system": "Top2a", "set-up": "method as in PMID 19773249", "details": "interference in DNA binding, impairment of Top2-mediated DNA cleavage and relegation; cited from earlier work"}}, "data": [{"smiles": "COC1C(O)C(CO)OC(OC2C(O)C(CO)OC(OC3C(C)OC(OC4C(OC5CCC6(C)C7=CC(O)C89C(=O)OC(C)(CCCC(C)C)C8(O)CCC9(C)C7CCC6C5(C)C)OCC(OS(=O)(=O)O)C4O)C(O)C3O)C2O)C1O.[Na+]", "note": "(stereo not shown) [Echinoside A (1), Echinoside A]", "values": [{"measurement": "IC50 (μg/mL) HL-7702", "setting": "[1]; MTT assay, normal hepatocytes, means ± SD (n = 3)", "value": "3.12 ± 0.65", "unit": "µg/mL"}, {"measurement": "Ratio (HL-7702/HepG2)", "setting": "[1]", "value": 2.08}, {"measurement": "Ratio (HL-7702/HepG2)", "setting": "[1]; listed as 1", "value": "more than 2"}, {"measurement": "ratio of Bcl-2/Bax mRNA expression", "setting": "[2]", "value": "significantly decreased"}, {"measurement": "mitochondrial transmembrane potential (Δψm)", "setting": "HepG2 cells", "value": "significantly decreased"}, {"measurement": "IC50 (μg/mL) HepG2", "setting": "[3]", "value": "1.50 ± 0.08", "unit": "µg/mL"}, {"measurement": "Top2 inhibition", "setting": "Top2a", "value": "non-intercalative Top2 inhibitor"}]}]}
